Assay results taken from patent publication US11628181B2, “N4-hydroxycytidine and derivatives and anti-viral uses related thereto” (Emory University, priority 2014, dated 2023).
Values after ≈ are worked out from the molar mass of the structure shown. Like-named read-outs stand apart in the source and are kept apart here.

How the values were obtained:
Norovirus GT1 = Norovirus GT1 antiviral screening in HG23; type: cell-based
[1] = Cytotoxicity (CC50) in HG23, norovirus screening; type: cell-based; conditions: human, HG23 cells; HG23, norovirus screen
in vitro = conditions: African green monkey
SARS Coronavirus Urbani = experiment: microbe, parasite or virus in culture; type: cell-based; conditions: Severe acute respiratory syndrome-related coronavirus, Vero 76
CEM cells = experiment: Cytotoxicity profile, selectivity index in CEM cells; type: cell-based; conditions: CEM cells (low of range)
VEE virus = experiment: organism not typed; type: cell-based; conditions: Vero
in vivo = conditions: male, SD, rat, po, 50 mg/kg
CHIK virus = experiment: Mouse model of Chikungunya infection; conditions: CHIKV challenged mice, 25 or 35 mg/kg i.p.
[2] = Rodent pharmacokinetic experiment in mice; type: in vivo, DBA-1J mice; conditions: female, DBA-1J, mouse, plasma, after IV dosing, read-out: plasma T1/2 (converted)
[3] = rat, in vivo, po, 50 mg/kg
[4] = 6 day q.d. intraperitoneal toxicology in mice; type: in vivo
Description: Alternatively, drug delivery by aerosol (nasal spray) administration may immediately achieve therapeutic levels of drug in the nasal mucosa and the brain.

[5] = Rodent pharmacokinetic experiment in mice; type: in vivo, DBA-1J mice; conditions: for concentration at 24 hr: read-out: 24 hr plasma levels
Description: DBA-1J mice (6-8 weeks old, female) were acclimated for ≥2 days after receipt. Mice were weighed the day before dosing to calculate dosing volumes. Mice were dosed by oral gavage with drug at 30 mg/kg, 100 mg/kg & 300 mg/kg. The mice were sampled at […] time points: 0.5, 1, 2, 3, 4, 8 and 24 hrs (3 mice per time point for test drug). The mice were euthanized and their organs were collected (see below). In order to collected blood, mice with euthanized by CO2 at the appropriate time point listed above. Blood was obtained by cardiac puncture (0.3 ml) at each time point. Following blood collection, the organs were removed from the mice (see below). The blood was processed by inverting Li-Heparin tube with blood gently 2 or 3 times to mix well. The tubes were then placed in a rack in ice water until able to centrifuge (≤1 hour). As soon as practical, the blood was centrifuged at ˜2000×g for 10 min in a refrigerated centrifuge to obtain plasma. Then, using a 200 μL pipette, the plasma was transferred to a labeled 1.5 ml Eppendorf tube in ice water. The plasma was then frozen in freezer or on dry ice. The samples were stored at −80° C. prior to analysis. Organs were collected from euthanized mice. The organs (lungs, liver, kidney, spleen and heart) were removed, placed in a tube, and immediately frozen in liquid nitrogen. The tubes were then transferred to dry ice. The samples were saved in cryogenic tissue vials. Samples were analyzed by LC-MS/MS using an ABSCIEX 5500 QTRAP LC-MS/MS system with a Hypercarb (PGC) column.

O=c1nc(NO)ccn1[C@@H]1O[C@H](CO)C(O)C1O (stereo partly drawn) [drawing 68]
EC50 (Norovirus GT1): > 100 µg/mL
CC50 [1]: > 100 µg/mL
CC50 (in vitro): 36 µg/mL (≈ 139 µM)
EC50 (SARS Coronavirus Urbani): < 0.1 µg/mL

O=c1nc(NO)ccn1[C@@H]1O[C@H](CO)[C@H](O)C1O (stereo partly drawn) [EIDD-01931, 1-(3,4-dihydroxy-5-(hydroxymethyl)tetrahydrofuran-2-yl)-4-(hydroxyamino)pyrimidin-2-one]
selectivity index (CEM cells): 8
EC50 (VEE virus): 1000 nM
bioavailability (in vivo): 28%
CHIKV RNA copies by PCR (FIG. 8) (CHIK virus; after 7 days): reduction of CHIKV RNA copies
footpad swelling (FIG. 7) (CHIK virus; daily for 7 days): reduction in footpad swelling
half-life [2]: 132 min
CC50 (CHIKV): > 500 µM
tissue distribution (brain, lung, spleen, kidney and liver) [3]: well distributed into all tissues tested
NOEL (NO Effect Level) ([4]; 6 day q.d. IP injections): 33 mg/kg
body weight effect ([4]; highest dose tested (100 mg/kg) IP q.d., reversed on cessation of dosing): weight loss was observed
Bioavailability (versus I.P. delivery) ([5]; PO 30 mg/kg): 65%
Bioavailability (versus I.P. delivery) ([5]; PO 100 and 300 mg/kg): 39-46%
Cmax ([5]; female, DBA-1J, mouse, plasma, PO 30 mg/kg): 3 ng/mL
Cmax ([5]; female, DBA-1J, mouse, plasma, PO 100 mg/kg): 7.7 ng/mL
Cmax ([5]; female, DBA-1J, mouse, plasma, PO 300 mg/kg): 11.7 ng/mL
half-life ([5]; female, DBA-1J, mouse, plasma, after PO dosing, read-out: plasma T1/2): 246 to 282 min
Tmax ([5]; female, DBA-1J, mouse, plasma, oral gavage, read-out: Tmax after oral dosing): 15 to 30 min
concentration at 24 hr ([5]; female, DBA-1J, mouse, plasma, oral, 100 mg/kg dose): ~100 nM
concentration at 24 hr ([5]; female, DBA-1J, mouse, plasma, po, 300 mg/kg P.O.): ~400 nM

CC1(O)C(O)[C@@H](CO)O[C@H]1n1ccc(NO)nc1=O (stereo partly drawn)
EC50 (Norovirus GT1): > 100 µg/mL
CC50 [1]: > 100 µg/mL
CC50 (in vitro): > 100 µg/mL
EC50 (SARS Coronavirus Urbani): > 100 µg/mL
